Literature values as cited in paper PMC11949389 (Polish Journal of Microbiology, 2025).
Values after ≈ are worked out from the molar mass of the structure shown. Like-named read-outs stand apart in the source and are kept apart here.

Tests used:
[1] = tested on: amphotericin B-resistant C. albicans; settings: varying among Candida isolates; ref Touil et al. (2020)
[2] = tested on: various microorganisms; settings: across various microorganisms; ref Owen et al. (2019)
[3] = tested on: Streptococcus suis; settings: ref de Aguiar et al. 2019
[4] = tested on: Pseudomonas aeruginosa; settings: Pseudomonas aeruginosa; ref Owen et al. 2019; Sim et al. 2019; Noumi et al. 2023
[5] = tested on: Candida tropicalis; settings: Candida tropicalis; ref Iraji et al. 2020; Stringaro et al. 2022
[6] = tested on: Mupirocin-susceptible Staphylococcus aureus; settings: ref Kwiatkowski et al. 2019
[7] = tested on: Staphylococcus sp.; settings: ref Caballero Gómez et al. 2022
[8] = tested on: HSV-2; settings: HSV-2, 1 mmol/l; ref Wang et al. (2020a)
[9] = tested on: Ciprofloxacin-resistant Pseudomonas aeruginosa; settings: Ciprofloxacin-resistant Pseudomonas aeruginosa; ref Owen et al. 2019
[10] = tested on: Candida albicans; settings: Candida albicans; ref Sharifzadeh et al. 2019; Iraji et al. 2020; Shaban et al. 2020; Stringaro et al. 2022; Biernasiuk et al. 2022
[11] = tested on: Staphylococcus aureus
[12] = tested on: Staphylococcus aureus Pseudomonas fluorescens; settings: ref Wang et al. 2020b
[13] = tested on: Salmonella Thyphimurium; settings: ref Giovagnoni et al. 2020
[14] = tested on: Candida auris
[15] = tested on: Malassezia pachydermatis; settings: ref Schlemmer et al. 2019, Sim et al. 2019
[16] = tested on: β-haemolytic Streptococcus spp.; settings: ref Sim et al. 2019
[17] = tested on: Acinetobacter baumannii; settings: combined with ciprofloxacin, ref Aleksic Sabo et al. (2021)
[18] = tested on: Candida auris; remark: listed apart in the source
[19] = tested on: carbapenem and polymyxin-resistant Klebsiella pneumoniae; settings: ref de Souza et al. (2021)
[20] = tested on: Enterococcus sp.; settings: ref Caballero Gómez et al. 2022
[21] = tested on: Candida species; settings: ref Stringaro et al. (2022)
[22] = tested on: HIV-1; settings: ref Mediouni et al. (2020)
[23] = tested on: Vancomycin-resistant Enterococcus (VRE); settings: Vancomycin-resistant Enterococcus (VRE); ref Owen et al. 2019
[24] = tested on: Pseudomonas aeruginosa Enterococcus faecalis; settings: ref Mechmechani et al. 2022
[25] = tested on: Methicillin-resistant Staphylococcus aureus; settings: Methicillin-resistant Staphylococcus aureus; ref Owen et al. 2019
[26] = tested on: Candida albicans; settings: ref Shaban et al. 2020
[27] = tested on: Candida krusei; settings: Candida krusei; ref Sharifzadeh et al. 2019; Iraji et al. 2020; Biernasiuk et al. 2022; Stringaro et al. 2022
[28] = tested on: carbapenem-resistant Klebsiella pneumoniae (CRKP) strains; settings: with meropenem, ref Köse (2022)
[29] = tested on: staphylococcal isolates; settings: ref Sim et al. 2019
[30] = tested on: carbapenem-resistant E. coli and P. aeruginosa; settings: ref Owen et al. (2019)
[31] = tested on: Pseudomonas sp.; settings: ref Caballero Gómez et al. 2022
[32] = tested on: Candida glabrata
[33] = tested on: Salmonella Typhimurium; settings: ref Giovagnoni et al. (2020)
[34] = tested on: Mupirocin-resistant Staphylococcus aureus; settings: ref Kwiatkowski et al. 2019
[35] = tested on: Escherichia coli; settings: Escherichia coli; ref Owen et al. 2019; Sayout et al. 2020; Noumi et al. 2023
[36] = tested on: Vibrio anguillarum, and Vibrio harveyi; settings: ref Rossi et al. (2021)
[37] = tested on: Vancomycin-sensitive Enterococcus (VSE)
[38] = Candida auris, ref Shaban et al. 2020

Cc1ccc(C(C)C)cc1O [Carvacrol]
MIC [1]: 250–1,000 μg/ml
MIC [2]: 990 to 15810 µM
MIC/Sensitivity [3]: 0.15625 mg/mL (≈ 1.04 mM)
MIC/Sensitivity [4]: 0.585 to 1.12 mg/mL
MIC/Sensitivity [5]: 0.0975 mg/mL (≈ 0.649 mM)
MIC/Sensitivity [6]: 0.95 mg/mL (≈ 6.32 mM)
MIC/Sensitivity [7]: 0.2 to 0.4 mg/mL
virus release rate [8]: 33.67%
MIC/Sensitivity [9]: 4749.9564 mg/mL (≈ 31600 mM)
MIC/Sensitivity [10]: 0.04375 to 0.25 mg/mL
MIC ([11]; S. aureus, ref Sousa Silveira et al. (2020)): 0.256 mg/mL (≈ 1.7 mM)
MIC/Sensitivity ([11]; Staphylococcus aureus, ref Kwiatkowski et al. 2020, Sayout et al. 2020, Sousa Silveira et al. 2020, Macêdo et al. 2022, Noumi et al. 2023, Sharma et al. 2023): 0.256 to 3.2 mg/mL
Mechanisms of action [12]: • Targeted extracellular polymeric substances • Disruption of biofilm structures
Mechanisms of action [13]: • Anti-inflammatory effects • Anti-oxidant properties • Enhanced epithelial barrier integrity • Reduction of bacterial translocation • Improved transepithelial electrical resistance • Inhibited bacterial growth
Mechanisms of action ([14]; ref Ismail et al. 2022): • Induced oxidative stress • Increased CAT, SOD and GPx enzyme activity • Decreased GR and GST enzyme activity • Caused membrane disintegration
Mechanisms of action ([14]; ref Shaban et al. 2020): • Reduced proteinase production and host cell adherence
MIC/Sensitivity [15]: 0.01 to 0.585 mg/mL
MIC/Sensitivity ([16]; β-haemolytic Streptococcus spp.): 0.146 to 0.292 mg/mL
MIC90 ([16]; β-hemolytic Streptococcus): 0.292 to 0.4 mg/mL
FICI [17]: 0.25–0.32
median MIC ([18]; C. auris, ref Shaban et al. (2020)): 0.125 mg/mL
MIC [18, 38]: 0.125 mg/mL (≈ 0.832 mM)
MIC/Sensitivity [18, 38]: 0.125 mg/mL (≈ 0.832 mM)
MIC [19]: 0.13 to 0.26 mg/mL
MIC/Sensitivity [20]: 0.1 to 0.45 mg/mL
MIC [21]: 0.0975 to 0.195 mg/mL
IC50 ([22]; HIV-1): 16 µM
reduction of viral infectivity ([22]; pretreatment of HIV): 60.6%
MIC/Sensitivity [23]: 593.369 mg/mL (≈ 3950 mM)
Mechanisms of action [24]: • Cell membrane destruction • Leakage of the intercellular pool • Anti-biofilm properties • Increased extracellular K+ ions concentrations
MIC/Sensitivity [25]: 148.7178 mg/mL (≈ 990 mM)
Mechanisms of action [26]: • Reduced proteinase production
MIC/Sensitivity [27]: 0.0875 to 0.125 mg/mL
FICI ([28]; checkerboard assays, CRKP): 0.5
CRKP strains with synergy [28]: 8 of 25
MIC90 [29]: 0.146 to 0.2 mg/mL
activity [30]: ineffective
MIC/Sensitivity [31]: 0.1 to 0.4 mg/mL
MIC/Sensitivity ([32]; Candida glabrata, ref Sharifzadeh et al. 2019, Iraji et al. 2020, Biernasiuk et al. 2022, Stringaro et al. 2022): 0.0625 to 0.195 mg/mL
FICI ([32]; with voriconazole, C. glabrata, ref Sharifzadeh et al. (2019)): 0.412–0.625
MIC [33]: 1870 µM (≈ 281 µg/mL)
MIC/Sensitivity [34]: 0.48 mg/mL (≈ 3.2 mM)
MIC/Sensitivity [35]: 297.4356 mg/mL (≈ 1980 mM)
MIC [36]: 940 to 7500 µM
MIC/Sensitivity ([37]; Vancomycin-sensitive Enterococcus (VSE), ref Owen et al. 2019): 0.59337 mg/mL (≈ 3.95 mM)
reduction in vancomycin’s MIC ([37]; binary combinations with vancomycin, VSE, ref Owen et al. (2020)): four to eight-fold reduction
